Test results from patent US9353382B2, “Process, vectors and engineered cell lines for enhanced large-scale transfection” (National Research Council of Canada, priority 2008, dated 2016).

Legend:
[1] = system: CHO-EBNA1c (clone 3E7) cells; test: Effect of PKB (AKT) and valproic acid on transient gene expression (SEAP); format: cell-based, Chinese Hamster; conditions: 0.25 mM VPA added 24 hours post-transfection; days 5 to 8 post-transfection
Method: (§1) Secreted alkaline phosphatase activity determination: SEAP activity is measured as previously described using the colorimetric substrate paranitrophenyl phosphate (Durocher et al, 2000).
Referring to FIG. 10, the effect of PKB (AKT) and valproic acid (VPA) on transient gene expression in CHO-EBNA1c (clone 3E7) cells is illustrated. The CHO-EBNA1c cells were transfected with a mixture of SEAP-encoding oriP plasmids (pTT-SEAP) and stuffer DNA or pTT-AKTdd vector (AKTdd is a dominant-positive mutant of AKT). In some cases, 0.25 mM VPA was added 24 hours post-transfection. SEAP activity (ΔA410/min) was measured at days 5 to 8 post-transfection.

[2] = system: CHO-EBNA1c (clone 3E7) cells; test: Effect of FGF2 co-expression on transient SEAP expression in CHO-EBNA1c cells; format: cell-based, Chinese Hamster; conditions: 25% pTT-SEAP, 0-70% FGF2 plasmid; 7 days post-transfection
Method: as §1
(§2) Referring to FIG. 9, graphs are shown illustrating the effect of FGF2 (bFGF) co-expression on transient gene expression in HEK293-EBNA1t (clone 6E) cells (upper panel) and CHO-EBNA1c (clone 3E7) cells (lower panel). The HEK293-EBNA1t and CHO-EBNA1c cells were transfected with 25% pTT-SEAP vector and increasing amounts (0%, 15%, 30%, 45%, 60% and 70%) of FGF2-encoding pTT plasmid (the overall content of DNA was kept constant with non-coding stDNA). SEAP activity (OD/min at 410 nm) was measured in the supernatant 7 days post-transfection. From the upper panel it is evident that SEAP activity in HEK293-EBNA1t cells is decreased by co-expression of FGF2. From the lower panel it is evident that SEAP activity in CHO-EBNA1c cells is increased by co-expression of FGF2. […] Increased productivity in CHO cells may be due to a FGF-induced rRNA synthesis.

[3] = system: HEK293-EBNA1t (clone 6E) cells; test: Effect of FGF2 co-expression on transient SEAP expression in HEK293-EBNA1t cells; format: cell-based, human; conditions: 25% pTT-SEAP, 0-70% FGF2 plasmid; 7 days post-transfection
Method: as §1, §2

| Molecule | effect on transient gene expression (SEAP activity) [1] | SEAP activity on co-expression of FGF2 [2] | SEAP activity on co-expression of FGF2 [3] |
| --- | --- | --- | --- |
| CCCC(CCC)C(=O)O [valproic acid] | increases transient gene expression | – | – |
| FGF2 | – | increased | decreased |
